Experimental data: patent publication US10912749B2, “Conjugate acid salt of N,N-dimethylglycine with organic acid, and composition and use thereof” (GUANGZHOU INSIGHTER BIOTECHNOLOGY CO., LTD., priority 2017, dated 2021)
Counter-ions that a name gives are not always drawn. Marks after values point to notes of the source that are not given here.

Assays:
[1] = High-humidity stability test; assay type: physicochemical; conditions: for hygroscopicity (in words): 25° C. and RH 95%, weight gains at day 5 turned the samples into water-like status; for hygroscopic weight gain Day 5 (%) / hygroscopic weight gain Day 10 (%): 25° C., RH 95%±1%, mean value±standard error, three parallels
Procedure: Method: A KNO3 saturated solution (25° C., […]) was placed in the lower part of a constant-temperature and constant-humidity sealed container. The test samples, three parallels for each test sample, were placed at 25° C. and RH 95%±1% for 10 days, and their average weight gains were measured at day 5 and day 10.

Sanhuang broilers = test: Breeding experiment in broiler feed (production performance); assay type: in vivo
Procedure: The experiment was carried out by single-factor randomized design. 1080 22-day-old Sanhuang broilers having similar body weight (averagely 153 g) were collected and randomly divided into 9 groups, 6 replicates in each group, 20 broilers in each replicate, with equal numbers of males and females. The henhouse and utensils were disinfected before the experiment. The broilers were kept in cages in the same henhouse under the same breeding conditions during the experiment. The basic diets mainly composed of corn and soybean meal, and no other antioxidant ingredients and growth promoters were added during the whole breeding process. The groups included a blank group, a control group, and experiment groups 1-7. […] For each replicate, the broilers were weighed (stopped feeding for 12 hours while water supply was maintained) at 42-day-old and their feed consumptions were recorded so as to calculate the average daily feed intake (ADFI), average daily weight gain (ADG) and feed conversion ratio (FCR). The experiment data were analyzed with SPSS18 software. The data were first analyzed by single factor analysis of variance (ANOVA), and if the differences between the groups were significant, multiple comparisons were performed using Duncan's method wherein the significance level was 0.05.

grass carps = test: Growth promotion experiment in aquatic feed; assay type: in vivo; conditions: 450 ppm in feed, 8 weeks; for SR (%): survival rate
Procedure: Test fish: The experiment fish were grass carps, born at the year of the test, from Dafeng hatchery in Huizhou City, Guangdong Province. Healthy and lively grass carps of the same size were reared in big net cages (4×2×1.5 m^3) for four weeks before the breeding experiment. The experiment system included floating small net cages (1.1×1.1×1.1 m^3), each small net cage was provided with an aerator and aerated 24 hours every day. […] 384 fish which were similar in body weight and had been starved for 1 day were randomly divided into 8 groups, 4 replicates in each group and 12 fish in each replicate. The fish of each replicate were weighed and transferred to […] net cages, and fed with different test feeds respectively.
Experiment feeds: The experiment feeds were prepared according to Table 6. The groups were respectively provided with different conjugate acid salts of N,N-dimethylglycine with metal and organic acid in the same concentration according to Table 7. Raw materials of the feed were ultra-pulverized, and then turned into floating expanded feed having a particle size of 3 mm by using a feed extruder from Jiangsu Muyang Group Co., Ltd. wherein the extruding temperature was 130° C., and 3% of soybean oil was sprayed on the feed using an oil sprayer. The feed was then sealed and stored in a cool place for later use.
Test management: The experiment was carried out with diet restriction, the diet amount was adjusted once a week, the feeding level (based on initial weight) of each group was exactly the same, and feeding was conducted twice every day (at 7:30 and 15:00). The experiment was carried out for 8 weeks. During the experiment, water quality was monitored regularly to maintain the following conditions: water temperature 26.88±3.08° C., DO>5.0 mg O L^−1, pH 7.8, ammonia nitrogen <0.50 mg N L^−1, and nitrite nitrogen <0.05 mg N L^1.
Parameter statistics: In the experiment, the fish in each net cage were weighed as a whole after starved for 1 day so as to calculate their weight gain (WG, %), feed conversion ratio (FCR) and survival rate (SR, %), through the following formula. Weight gain (WG, %)=100×(average final weight−average initial weight)/average initial weight Feed conversion ratio (FCR)=feed intake/fish weight gain Survival rate (SR, %)=100×fish amount at the end of the test/fish amount at the beginning of the test

CN(C)CC(=O)O.Cl [Sample 1, N,N-dimethylglycine hydrochloride]
hygroscopicity (in words) [1]: very high hygroscopicity
hygroscopic weight gain Day 5 (%) [1]: 79.86 ± 0.94%
hygroscopic weight gain Day 10 (%) [1]: 80.69 ± 0.59%

CN(C)CC(=O)[O-].[Na+] [Sample 2, Sodium N,N-dimethylglycinate]
hygroscopicity (in words) [1]: very high hygroscopicity
hygroscopic weight gain Day 5 (%) [1]: 49.09 ± 1.14%
hygroscopic weight gain Day 10 (%) [1]: 52.44 ± 0.48%

CN(C)CC(=O)[O-].CN(C)CC(=O)[O-].O=C(O)c1ccccc1.O=C(O)c1ccccc1.[Ca+2] [Sample 5, Conjugate acid salt of calcium N,N-dimethylglycinate with benzoic acid]
hygroscopic weight gain Day 10 (%) [1]: 3.69 ± 0.28%
breeding effect with respect to feed conversion efficiency compared with sodium N,N-dimethylglycinate (Sanhuang broilers): equivalent to that of sodium N,N-dimethylglycinate
(FCR) (grass carps): 1.48 ± 0.03
Final weight (grass carps): 586.87 ± 10.44 g
Weight gain (%) (grass carps): 134.96 ± 2.82%
SR (%) (grass carps): 83.10 ± 3.65^b %

CN(C)CC(=O)[O-].CN(C)CC(=O)[O-].O=C(O)/C=C/C(=O)O.[Ca+2] [Sample 6, Conjugate acid salt of calcium N,N-dimethylglycinate with fumaric acid]
(FCR) (grass carps): 1.48 ± 0.03
Final weight (grass carps): 589.33 ± 12.75 g
Weight gain (%) (grass carps): 138.98 ± 3.02%
SR (%) (grass carps): 83.90 ± 5.30^b %

CCCCCCCCCCCCCC(=O)O.CCCCCCCCCCCCCC(=O)O.CN(C)CC(=O)[O-].CN(C)CC(=O)[O-].[Ca+2] [Sample 7, Conjugate acid salt of calcium N,N-dimethylglycinate with tetradecanoic acid]
hygroscopic weight gain Day 10 (%) [1]: 3.06 ± 0.29%
(FCR) (grass carps): 1.46 ± 0.04
Final weight (grass carps): 585.22 ± 11.23 g
Weight gain (%) (grass carps): 134.40 ± 2.90%
SR (%) (grass carps): 73.00 ± 3.63^b %

CN(C)CC(=O)[O-].CN(C)CC(=O)[O-].O=C(O)c1ccccc1.O=C(O)c1ccccc1.[Cu+2] [Sample 8, Conjugate acid salt of copper N,N-dimethylglycinate with benzoic acid]
(FCR) (grass carps): 1.41 ± 0.03
Final weight (grass carps): 598.68 ± 9.66 g
Weight gain (%) (grass carps): 143.40 ± 10.09%
SR (%) (grass carps): 80.04 ± 3.80^b %

CN(C)CC(=O)[O-].CN(C)CC(=O)[O-].O=C(O)/C=C/C(=O)O.[Cu+2] [Sample 9, Conjugate acid salt of copper N,N-dimethylglycinate with fumaric acid]
(FCR) (grass carps): 1.43 ± 0.03
Final weight (grass carps): 598.12 ± 9.27 g
Weight gain (%) (grass carps): 139.12 ± 2.34%
SR (%) (grass carps): 83.96 ± 5.68^b %

CN(C)CC(=O)[O-].CN(C)CC(=O)[O-].O=C(O)c1ccccc1.O=C(O)c1ccccc1.[Zn+2] [Sample 10, Conjugate acid salt of zinc N,N-dimethylglycinate with benzoic acid]
(FCR) (grass carps): 1.45 ± 0.03
Final weight (grass carps): 597.66 ± 9.69 g
Weight gain (%) (grass carps): 133.08 ± 4.70%
SR (%) (grass carps): 78.04 ± 4.21^b %

CN(C)CC(=O)[O-].CN(C)CC(=O)[O-].O=C(O)/C=C/C(=O)O.[Zn+2] [Sample 11, Conjugate acid salt of zinc N,N-dimethylglycinate with fumaric acid]
(FCR) (grass carps): 1.44 ± 0.02
Final weight (grass carps): 600.00 ± 9.30 g
Weight gain (%) (grass carps): 139.98 ± 3.58%
SR (%) (grass carps): 84.94 ± 4.26^b %

CN(C)CC(=O)[O][Zn][O]C(=O)CN(C)C [Sample 11, Conjugate acid salt of zinc N,N-dimethylglycinate with fumaric acid]
hygroscopic weight gain Day 10 (%) [1]: 2.88 ± 0.22%

Calcium N,N-dimethylglycinate [Sample 3]
hygroscopicity (in words) [1]: very high hygroscopicity
hygroscopic weight gain Day 5 (%) [1]: 38.40 ± 0.22%
hygroscopic weight gain Day 10 (%) [1]: 41.83 ± 0.35%
